Patent USRE42890E1, “Furazanobenzimidazoles” (Basilea Pharmaceutica AG, priority 2003, dated 2011)
pIC50: −log10 of the molar value.

Assays:
Jurkat = assay: MTS proliferation assay, Jurkat; assay type: cell-based, human; settings: 72 h incubation, read-out: MTS proliferation assay IC 50 Jurkat
How it was run: (§1)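 Cells were seeded 24 h before treatment and exposed to compound at 10, 3, 1 and 0.3 μM final for 72 h at 37 °C, 7.5% CO2 in RPMI-1640 with 5% or 10% FCS. Viability was read by MTS reagent (3 h) as absorbance at 492 nm.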

Jily = assay: MTS proliferation assay, Jily; assay type: cell-based; settings: 72 h incubation, read-out: MTS proliferation assay IC 50 Jily
How it was run: (§2)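 Cells in RPMI-1640 with 5% or 10% FCS, 2-mercaptoethanol and glutamine were seeded 24 h before treatment with compound at final 10, 3, 1 and 0.3 μM. After 72 h at 37° C and 7.5% CO2, MTS reagent was added for 3 h and absorbance read at 492 nm.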

HT1080 = assay: MTS proliferation assay, HT1080; assay type: cell-based, human; settings: HT1080, 72 h incubation; read-out: MTS proliferation assay IC 50 HT1080
How it was run: as §1

HeLa = assay: MTS proliferation assay, HeLa; assay type: cell-based, human; settings: 72 h incubation, read-out: MTS proliferation assay IC 50 HeLa
How it was run: as §1

MRC5 = assay: MTS proliferation assay, MRC5; assay type: cell-based; settings: MRC5, 72 h incubation; read-out: MTS proliferation assay IC 50 MRC5
How it was run: as §2

[1] = tested on: adherent cells or suspension cells; assay: Hoechst 33342 nuclear staining (fraction of apoptotic nuclei); assay type: cell-based; design: key: 0 relating to no activity; 1 relating to weak activity comprising less than 70% of the cells; score 2 relating to strong activity comprising more than 70% of the cells

Row | pIC50 (Jurkat) | pIC50 (HT1080) | pIC50 (HeLa) | SMILES | pIC50 (Jily) | pIC50 (MRC5) | Hoechst 33342 nuclear staining score ([1]; H460, conc 0.01 μm) | Hoechst 33342 nuclear staining score ([1]; H460, conc 0.1 μm) | Hoechst 33342 nuclear staining score ([1]; H460, conc 1 μm) | Hoechst 33342 nuclear staining score ([1]; HeLa, conc 0.01 μm) | Hoechst 33342 nuclear staining score ([1]; HeLa, conc 0.1 μm) | Hoechst 33342 nuclear staining score ([1]; HeLa, conc 1 μm) | Hoechst 33342 nuclear staining score ([1]; Jily, conc 0.01 μm) | Hoechst 33342 nuclear staining score ([1]; Jily, conc 0.1 μm) | Hoechst 33342 nuclear staining score ([1]; Jily, conc 1 μm) | Hoechst 33342 nuclear staining score ([1]; Jurkat, conc 0.01 μm) | Hoechst 33342 nuclear staining score ([1]; Jurkat, conc 0.1 μm) | Hoechst 33342 nuclear staining score ([1]; Jurkat, conc 1 μm) | Hoechst 33342 nuclear staining score ([1]; MRC5, conc 0.01 μm) | Hoechst 33342 nuclear staining score ([1]; MRC5, conc 0.1 μm) | Hoechst 33342 nuclear staining score ([1]; MRC5, conc 1 μm) | also measured
1 | > 8.00 | 7.00 to 8.00 | 7.00 to 8.00 | COc1ccc(C(=O)Cn2c(-c3nonc3NCCC#N)nc3ccccc32)cc1 [Example 48] | 7.00 to 8.00 | 7.00 to 8.00 | 0 | 0 | 2 (score 2 relating to strong activity comprising more than 70% of the cells) | 0 | 2 (score 2 relating to strong activity comprising more than 70% of the cells) | 2 (score 2 relating to strong activity comprising more than 70% of the cells) | 0 | 2 (score 2 relating to strong activity comprising more than 70% of the cells) | 2 (score 2 relating to strong activity comprising more than 70% of the cells) | 0 | 2 (score 2 relating to strong activity comprising more than 70% of the cells) | 2 (score 2 relating to strong activity comprising more than 70% of the cells) | 0 | 2 (score 2 relating to strong activity comprising more than 70% of the cells) | 2 (score 2 relating to strong activity comprising more than 70% of the cells) | Hoechst 33342 nuclear staining score ([1]; PBLs, conc 0.01 μm): 0; Hoechst 33342 nuclear staining score ([1]; PBLs, conc 0.1 μm): 0; Hoechst 33342 nuclear staining score ([1]; PBLs, conc 1 μm): 0
2 | 6.00 to 7.00 | < 6.00 | < 6.00 | Nc1nonc1-c1nc2ccccc2n1CC(=O)c1ccc([N+](=O)[O-])cc1 [Example 49] | 6.00 to 7.00 | < 6.00 | 0 | 0 | 0 | 0 | 0 | 1 (1 relating to weak activity comprising less than 70% of the cells) | 0 | 0 | 1 (1 relating to weak activity comprising less than 70% of the cells) | 0 | 0 | 2 (score 2 relating to strong activity comprising more than 70% of the cells) | 0 | 0 | 0 | Hoechst 33342 nuclear staining score ([1]; PBLs, conc 0.01 μm): 0; Hoechst 33342 nuclear staining score ([1]; PBLs, conc 0.1 μm): 0; Hoechst 33342 nuclear staining score ([1]; PBLs, conc 1 μm): 0
3 | 7.00 to 8.00 | 7.00 to 8.00 | 7.00 to 8.00 | Nc1ccc(C(=O)Cn2c(-c3nonc3N)nc3ccccc32)cc1 [Example 50] | 7.00 to 8.00 | 7.00 to 8.00 | 1 (1 relating to weak activity comprising less than 70% of the cells) | 2 (score 2 relating to strong activity comprising more than 70% of the cells) | 2 (score 2 relating to strong activity comprising more than 70% of the cells) | 0 | 2 (score 2 relating to strong activity comprising more than 70% of the cells) | 2 (score 2 relating to strong activity comprising more than 70% of the cells) | 2 (score 2 relating to strong activity comprising more than 70% of the cells) | 2 (score 2 relating to strong activity comprising more than 70% of the cells) | 2 (score 2 relating to strong activity comprising more than 70% of the cells) | 2 (score 2 relating to strong activity comprising more than 70% of the cells) | 2 (score 2 relating to strong activity comprising more than 70% of the cells) | 2 (score 2 relating to strong activity comprising more than 70% of the cells) | 0 | 2 (score 2 relating to strong activity comprising more than 70% of the cells) | 2 (score 2 relating to strong activity comprising more than 70% of the cells) | Hoechst 33342 nuclear staining score ([1]; PBLs, conc 0.01 μm): 0; Hoechst 33342 nuclear staining score ([1]; PBLs, conc 0.1 μm): 0; Hoechst 33342 nuclear staining score ([1]; PBLs, conc 1 μm): 0
4 | 7.00 to 8.00 | 7.00 to 8.00 | 7.00 to 8.00 | Cl.Nc1ccc(C(=O)Cn2c(-c3nonc3N)nc3ccccc32)cc1 [Example 51] | 7.00 to 8.00 | 7.00 to 8.00 | 0 | 2 (score 2 relating to strong activity comprising more than 70% of the cells) | 2 (score 2 relating to strong activity comprising more than 70% of the cells) | 0 | 2 (score 2 relating to strong activity comprising more than 70% of the cells) | 2 (score 2 relating to strong activity comprising more than 70% of the cells) | 0 | 2 (score 2 relating to strong activity comprising more than 70% of the cells) | 2 (score 2 relating to strong activity comprising more than 70% of the cells) | 1 (1 relating to weak activity comprising less than 70% of the cells) | 2 (score 2 relating to strong activity comprising more than 70% of the cells) | 2 (score 2 relating to strong activity comprising more than 70% of the cells) | 0 | 2 (score 2 relating to strong activity comprising more than 70% of the cells) | 2 (score 2 relating to strong activity comprising more than 70% of the cells) | Hoechst 33342 nuclear staining score ([1]; PBLs, conc 0.01 μm): 0; Hoechst 33342 nuclear staining score ([1]; PBLs, conc 0.1 μm): 0; Hoechst 33342 nuclear staining score ([1]; PBLs, conc 1 μm): 0
5 | 7.00 to 8.00 | 6.00 to 7.00 | 6.00 to 7.00 | N#CCCNc1nonc1-c1nc2ccccc2n1CC(=O)c1ccc([N+](=O)[O-])cc1 [Example 57] | 7.00 to 8.00 | 6.00 to 7.00 | 0 | 0 | 0 | 0 | 0 | 2 (score 2 relating to strong activity comprising more than 70% of the cells) | 0 | 0 | 2 (score 2 relating to strong activity comprising more than 70% of the cells) | 0 | 0 | 2 (score 2 relating to strong activity comprising more than 70% of the cells) | 0 | 0 | 2 (score 2 relating to strong activity comprising more than 70% of the cells) | Hoechst 33342 nuclear staining score ([1]; PBLs, conc 0.01 μm): 0; Hoechst 33342 nuclear staining score ([1]; PBLs, conc 0.1 μm): 0; Hoechst 33342 nuclear staining score ([1]; PBLs, conc 1 μm): 0
